Measurements taken from ChEMBL document CHEMBL1141252, “Antitrypanosomal activity of triterpenoids and sterols from the leaves of Strychnos spinosa and related compounds” (J Nat Prod, 2007).
pIC50: −log10 of the molar value. Calls of active or inactive are those of the source. The calls are words filed in the database; no cut-off is given here.

Assays:
[1] = system: Trypanosoma brucei brucei; assay: Antitrypanosomal activity against Trypanosoma brucei brucei bloodstream trypomastigotes by alamar blue assay; format: functional, organism-based
J774 = assay: Cytotoxicity against mouse J774 cells by alamar blue assay; format: cell-based
[2] = Selectivity index, ratio of IC50 for mouse J774 cells to IC50 for Trypanosoma brucei brucei bloodstream trypomastigotes; format: functional
[3] = system: Trypanosoma brucei rhodesiense; assay: Antitrypanosomal activity against Trypanosoma brucei rhodesiense bloodstream trypomastigotes; format: functional, organism-based
Trypanosoma cruzi [4] = assay: Antitrypanosomal activity against South American Trypanosoma cruzi bloodstream trypomastigotes at 21 uM; format: functional
Trypanosoma cruzi [5] = assay: Antitrypanosomal activity against South American Trypanosoma cruzi bloodstream trypomastigotes at 80.4 uM; format: functional
[6] = Cytotoxicity against mouse leukemic cells; format: functional, cell-based; conditions: Leukemic tumor cell line
[7] = Cytotoxicity against human lung cancer cells; format: functional, cell-based; conditions: Cancer cell lines
[8] = Cytotoxicity against human colon cancer cells; format: functional, cell-based; conditions: Cancer cell lines
[9] = Cytotoxicity against human leukemia cells; format: functional, cell-based; conditions: Leukemia cell

Structure (SMILES)	pIC50 [1]	pIC50 (J774)	Ratio IC50 [2]	also measured
C=C(C)[C@@H]1CC[C@]2(C)CC[C@]3(C)[C@H](CC[C@@H]4[C@@]5(C)CC[C@H](O)C(C)(C)[C@@H]5CC[C@]43C)[C@@H]12 [LUPEOL]	4.34	< 3.63	>5.2	–
CC[C@H](CC[C@@H](C)[C@H]1CC[C@H]2[C@@H]3CC[C@H]4C[C@@H](O)CC[C@]4(C)[C@H]3CC[C@]12C)C(C)C [STIGMASTANOL]	< 3.62	< 3.62	–	–
C[C@H]1[C@H](C)CC[C@]2(CO)CC[C@]3(C)C(=CC[C@@H]4[C@@]5(C)CC[C@H](O)C(C)(C)[C@@H]5CC[C@]43C)[C@H]12 [UVAOL]	4.56	3.81	5.6	–
C[C@H]1[C@H](C)CC[C@]2(C)CC[C@]3(C)C(=CC[C@@H]4[C@@]5(C)CC[C@H](O)C(C)(C)[C@@H]5CC[C@]43C)[C@H]12	3.94	3.89	1.1	–
CC1(C)CC[C@]2(C)CC[C@]3(C)C(=CC[C@@H]4[C@@]5(C)CC[C@H](O)C(C)(C)[C@@H]5CC[C@]43C)[C@@H]2C1 [beta-AMYRIN]	3.90	< 3.63	>1.8	Activity [3]: inactive
CC1(C)CC[C@]2(C(=O)O)CC[C@]3(C)C(=CC[C@@H]4[C@@]5(C)CC[C@H](O)C(C)(C)[C@@H]5CC[C@]43C)[C@@H]2C1 [OLEANOLIC_ACID]	5.19	3.88	20.6	Activity (Trypanosoma cruzi [4]): 50%; Activity (Trypanosoma cruzi [5]): 50%
C=C(C)[C@@H](CC)CC[C@@H](C)[C@H]1CC[C@H]2[C@@H]3CC=C4C[C@@H](O)CC[C@]4(C)[C@H]3CC[C@]12C [CLEROSTEROL]	3.89	< 3.62	>1.9	–
C[C@H]1[C@H](C)CC[C@]2(C(=O)O)CC[C@]3(C)C(=CC[C@@H]4[C@@]5(C)CC[C@H](O)C(C)(C)[C@@H]5CC[C@]43C)[C@H]12 [URSOLIC ACID]	5.66	4.88	6	Activity (Trypanosoma cruzi [4]): 50%; Activity (Trypanosoma cruzi [5]): 50%
CC[C@H](CC[C@@H](C)[C@H]1CC[C@H]2[C@@H]3CC=C4C[C@@H](O)CC[C@]4(C)[C@H]3CC[C@]12C)C(C)C [BETA-SITOSTEROL]	< 3.62	< 3.62	–	–
C=C(C)[C@@H]1CC[C@]2(CO)CC[C@]3(C)[C@H](CC[C@@H]4[C@@]5(C)CC[C@H](O)C(C)(C)[C@@H]5CC[C@]43C)[C@@H]12 [BETULIN]	5.05	4.17	7.4	–
COc1cc2c(c(OC)c1OC)-c1ccc(OC)c(=O)cc1[C@@H](NC(C)=O)CC2 [COLCHICINE]	–	6.68	–	–
CC[C@H](/C=C/[C@@H](C)[C@H]1CC[C@H]2[C@@H]3CC=C4C[C@@H](O)CC[C@]4(C)[C@H]3CC[C@]12C)C(C)C [STIGMASTEROL]	3.87	< 3.62	>1.8	–
C=CC(O)(CC[C@@H](C)[C@H]1CC[C@H]2[C@@H]3CC=C4C[C@@H](O)CC[C@]4(C)[C@H]3CC[C@]12C)C(C)C (some centres undefined) [SARINGOSTEROL]	5.11	< 3.63	>30.3	–
C=CC(CC[C@@H](C)[C@H]1CC[C@H]2[C@@H]3CC=C4C[C@@H](O)CC[C@]4(C)[C@H]3CC[C@]12C)(OO)C(C)C (some centres undefined)	5.49	4.79	5.2	pIC50 [6]: 6.15; pIC50 [7]: 6.15; pIC50 [8]: 6.15; pIC50 [9]: 6.15
C=C(C)[C@@H]1CC[C@]2(C(=O)O)CC[C@]3(C)[C@H](CC[C@@H]4[C@@]5(C)CC[C@H](O)C(C)(C)[C@@H]5CC[C@]43C)[C@@H]12 [BETULINIC ACID]	4.49	4.36	1.3	–
Cc1ccc(C(=O)Nc2ccc(S(=O)(=O)O)c3cc(S(=O)(=O)O)cc(S(=O)(=O)O)c23)cc1NC(=O)c1cccc(NC(=O)Nc2cccc(C(=O)Nc3cc(C(=O)Nc4ccc(S(=O)(=O)O)c5cc(S(=O)(=O)O)cc(S(=O)(=O)O)c45)ccc3C)c2)c1 [SURAMIN]	7.39	–	–	–
CC1(C)CC[C@]2(CO)CC[C@]3(C)C(=CC[C@@H]4[C@@]5(C)CC[C@H](O)C(C)(C)[C@@H]5CC[C@]43C)[C@@H]2C1 [ERYTHRODIOL]	4.92	4.30	4.2	–
